According to article PMC9696710 (International Journal of Molecular Sciences, 2022):

Assays:
Experiment in all cases: stopped-flow CO2 hydrase assay
Type in all cases: biochemical
hCA II = biological target: T1, hCA II (Homo sapiens, UniProt P00918); settings: read-out: KI (nM) ^a / hCA II (α-CA)
T1 construct: gene CA2; recombinant, obtained in-house; cytosolic alpha-CA
From the text: stopped-flow CO2 hydrase assay on hCA II

hCA VII = biological target: T2, hCA VII (Homo sapiens, UniProt P43166); settings: read-out: KI (nM) ^a / hCA VII (α-CA)
T2 construct: gene CA7; recombinant, obtained in-house; cytosolic alpha-CA
From the text: stopped-flow CO2 hydrase assay on hCA VII

hCA I = biological target: T3, hCA I (Homo sapiens, UniProt P00915); settings: read-out: KI (nM) ^a / hCA I (α-CA)
T3 construct: gene CA1; recombinant, obtained in-house; cytosolic alpha-CA
From the text: stopped-flow CO2 hydrase assay on hCA I

MgCA = biological target: T4, MgCA (Malassezia globosa, UniProt A8Q1N3); settings: […] TRIS pH […] Na2SO4, […] h preincubation at room temperature; read-out: KI (nM) ^a / MgCA (β-CA)
T4 construct: gene MGL_1814; recombinant, obtained in-house; beta-CA
T4 sequence (A8Q1N3 1-241): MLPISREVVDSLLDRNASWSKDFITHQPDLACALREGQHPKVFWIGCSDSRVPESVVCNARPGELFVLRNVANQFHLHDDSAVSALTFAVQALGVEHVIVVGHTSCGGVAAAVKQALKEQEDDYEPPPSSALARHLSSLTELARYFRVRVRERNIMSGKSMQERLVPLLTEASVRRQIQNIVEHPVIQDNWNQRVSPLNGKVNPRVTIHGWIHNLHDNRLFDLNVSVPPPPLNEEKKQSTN

CgNce103 = biological target: T5, CgNce103 (Nakaseomyces glabratus, UniProt Q6FTL6); settings: read-out: KI (nM) ^a / CgNce103 (β-CA)
T5 construct: gene NCE103; recombinant, obtained in-house; beta-CA
T5 sequence (Q6FTL6 1-219): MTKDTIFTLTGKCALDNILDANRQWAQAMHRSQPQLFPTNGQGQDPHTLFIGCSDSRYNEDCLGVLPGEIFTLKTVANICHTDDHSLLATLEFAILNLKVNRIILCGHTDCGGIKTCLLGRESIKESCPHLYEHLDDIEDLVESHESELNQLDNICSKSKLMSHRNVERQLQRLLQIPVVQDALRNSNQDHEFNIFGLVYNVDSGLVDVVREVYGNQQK

T2 sequence (P43166 whole entry): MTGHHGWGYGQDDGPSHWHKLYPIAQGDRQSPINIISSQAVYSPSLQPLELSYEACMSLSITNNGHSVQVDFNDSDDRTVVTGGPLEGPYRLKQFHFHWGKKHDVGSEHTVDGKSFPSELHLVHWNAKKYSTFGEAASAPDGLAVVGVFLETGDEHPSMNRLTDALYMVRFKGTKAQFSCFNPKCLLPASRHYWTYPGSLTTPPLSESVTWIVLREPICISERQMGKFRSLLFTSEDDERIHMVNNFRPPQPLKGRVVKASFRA
T3 sequence (P00915 2-261): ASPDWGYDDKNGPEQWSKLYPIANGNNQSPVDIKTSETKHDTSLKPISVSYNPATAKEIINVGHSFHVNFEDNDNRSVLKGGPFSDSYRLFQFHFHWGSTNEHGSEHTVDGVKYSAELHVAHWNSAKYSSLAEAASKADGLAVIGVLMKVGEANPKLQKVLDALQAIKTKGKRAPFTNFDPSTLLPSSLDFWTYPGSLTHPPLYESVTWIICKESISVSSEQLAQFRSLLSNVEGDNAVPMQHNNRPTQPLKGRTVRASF

Work on `NS(=O)(=O)c1ccc(N2CC(=O)NC2=O)cc1` [compound 6, 4-(2,4-Dioxoimidazolidin-1-yl)benzenesulfonamide] yielded a Ki (hCA II) of 18.1 nM, a Ki (hCA VII) of 61.4 nM and a Ki (hCA I) of 504 nM. For the same compound, the Ki (MgCA) was 37200 nM and the Ki (CgNce103) was 29.5 nM.

Work on `NS(=O)(=O)c1ccc(N2CC(=O)N(Cc3c(F)c(F)c(F)c(F)c3F)C2=O)cc1` [8n, 4-(2,4-Dioxo-3-((perfluorophenyl)methyl)imidazolidin-1-yl)benzenesulfonamide] yielded a Ki (hCA II) of 91.2 nM, a Ki (hCA VII) of 16.9 nM and a Ki (hCA I) of 415 nM. For the same compound, the Ki (MgCA) was 34900 nM and the Ki (CgNce103) was 35.7 nM.

Work on `Cc1ccc(CN2C(=O)CN(c3ccc(S(N)(=O)=O)cc3)C2=O)cc1` [8e, 4-(3-(4-Methylbenzyl)-2,4-dioxoimidazolidin-1-yl)benzenesulfonamide] yielded a Ki (hCA II) of 32.7 nM, a Ki (hCA VII) of 3 nM and a Ki (hCA I) of 2930 nM. It also gave a Ki (MgCA) of 38900 nM and a Ki (CgNce103) of 18.3 nM.

Work on `N#Cc1ccc(CN2C(=O)CN(c3ccc(S(N)(=O)=O)cc3)C2=O)cc1` [8g, 4-(3-(4-Cyanobenzyl)-2,4-dioxoimidazolidin-1-yl)benzenesulfonamide] yielded a Ki (hCA II) of 7.2 nM, a Ki (hCA VII) of 12 nM and a Ki (hCA I) of 570 nM. For the same compound, the Ki (MgCA) was over 100000 nM and the Ki (CgNce103) was 38.4 nM.

`NS(=O)(=O)c1ccc(N2CC(=O)N(Cc3ccc(Cl)c(Cl)c3)C2=O)cc1` [8m, 4-(3-(3,4-Dichlorobenzyl)-2,4-dioxoimidazolidin-1-yl)benzenesulfonamide] gave a Ki (hCA II) of 85.6 nM, a Ki (hCA VII) of 133 nM and a Ki (hCA I) of 688 nM. The Ki (MgCA) was over 100000 nM and the Ki (CgNce103) was 67.9 nM.

`CCN1C(=O)CN(c2ccc(S(N)(=O)=O)cc2)C1=O` [8a, 4-(3-Ethyl-2,4-dioxoimidazolidin-1-yl)benzenesulfonamide] gave a Ki (hCA II) of 25.8 nM, a Ki (hCA VII) of 30.8 nM and a Ki (hCA I) of 262 nM. For the same compound, the Ki (MgCA) was 68100 nM and the Ki (CgNce103) was 46 nM.

Work on `C=CCN1C(=O)CN(c2ccc(S(N)(=O)=O)cc2)C1=O` [8c, 4-(3-Allyl-2,4-dioxoimidazolidin-1-yl)benzenesulfonamide] yielded a Ki (hCA II) of 32.6 nM, a Ki (hCA VII) of 19.5 nM and a Ki (hCA I) of 234 nM. The Ki (MgCA) was 66600 nM and the Ki (CgNce103) was 54.2 nM.

Work on `Cc1cccc(CN2C(=O)CN(c3ccc(S(N)(=O)=O)cc3)C2=O)c1` [8k, 4-(3-(3-Methylbenzyl)-2,4-dioxoimidazolidin-1-yl)benzenesulfonamide] yielded a Ki (hCA II) of 58.3 nM, a Ki (hCA VII) of 18.8 nM and a Ki (hCA I) of 1080 nM. It also gave a Ki (MgCA) of over 100000 nM and a Ki (CgNce103) of 8.4 nM.

In the case of `NS(=O)(=O)c1ccc(N2CC(=O)N(Cc3ccc(OC(F)(F)F)cc3)C2=O)cc1` [8j, 4-(2,4-Dioxo-3-(4-(trifluoromethoxy)benzyl)imidazolidin-1-yl)benzenesulfonamide], the Ki (hCA II) is reported as 16.4 nM, the Ki (hCA VII) is reported as 22.4 nM and the Ki (hCA I) is reported as 425 nM. For the same compound, the Ki (MgCA) was over 100000 nM and the Ki (CgNce103) was 5.9 nM.

Compound `CCCCCCCN1C(=O)CN(c2ccc(S(N)(=O)=O)cc2)C1=O` [8b, 4-(3-Heptyl-2,4-dioxoimidazolidin-1-yl)benzenesulfonamide] has a Ki (hCA II) of 56.4 nM, a Ki (hCA VII) of 187 nM and a Ki (hCA I) of 747 nM. It also gave a Ki (MgCA) of 95700 nM and a Ki (CgNce103) of 83.7 nM.

In the case of `NS(=O)(=O)c1ccc(N2CC(=O)N(Cc3ccccc3F)C2=O)cc1` [8l, 4-(3-(2-Fluorobenzyl)-2,4-dioxoimidazolidin-1-yl)benzenesulfonamide], the Ki (hCA II) is reported as 1.2 nM, the Ki (hCA VII) is reported as 12.7 nM and the Ki (hCA I) is reported as 447 nM. It also gave a Ki (MgCA) of 81100 nM and a Ki (CgNce103) of 48.8 nM.

`NS(=O)(=O)c1ccc(N2CC(=O)N(Cc3ccc(Cl)cc3)C2=O)cc1` [8f, 4-(3-(4-Chlorobenzyl)-2,4-dioxoimidazolidin-1-yl)benzenesulfonamide] was tested, and the Ki (hCA II) was 62.2 nM, the Ki (hCA VII) was 15.3 nM and the Ki (hCA I) was 8790 nM. The Ki (MgCA) was 41500 nM and the Ki (CgNce103) was 44.9 nM.

`NS(=O)(=O)c1ccc(N2CC(=O)N(Cc3ccc([N+](=O)[O-])cc3)C2=O)cc1` [8h, 4-(3-(4-Nitrobenzyl)-2,4-dioxoimidazolidin-1-yl)benzenesulfonamide] gave a Ki (hCA II) of 6.1 nM, a Ki (hCA VII) of 30.3 nM and a Ki (hCA I) of 657 nM. The Ki (MgCA) was over 100000 nM and the Ki (CgNce103) was 6.6 nM.

Compound `NS(=O)(=O)c1ccc(N2CC(=O)N(Cc3ccc(C(F)(F)F)cc3)C2=O)cc1` [8i, 4-(2,4-Dioxo-3-(4-(trifluoromethyl)benzyl)imidazolidin-1-yl)benzenesulfonamide] has a Ki (hCA II) of 43.3 nM, a Ki (hCA VII) of 14.3 nM and a Ki (hCA I) of 601 nM. For the same compound, the Ki (MgCA) was 59600 nM and the Ki (CgNce103) was 13.1 nM.

`NS(=O)(=O)c1ccc(N2CC(=O)N(Cc3ccccc3)C2=O)cc1` [8d, 4-(3-Benzyl-2,4-dioxoimidazolidin-1-yl)benzenesulfonamide] was tested, and the Ki (hCA II) was 8.7 nM, the Ki (hCA VII) was 5.3 nM and the Ki (hCA I) was 837 nM. It also gave a Ki (MgCA) of 64600 nM and a Ki (CgNce103) of 20.9 nM.
